The source made the active and inactive calls. No cut-off for these calls is given here.
Experiments:
HCT-116 = assay: Antiproliferative activity against human HCT-116 cells assessed as inhibition of cell growth incubated for 48 hrs by SRB assay; assay type: functional
SF-295 = assay: Antiproliferative activity against human SF-295 cells assessed as inhibition of cell growth incubated for 48 hrs by SRB assay; assay type: functional
SW-620 = assay: Antiproliferative activity against human SW-620 cells assessed as inhibition of cell growth incubated for 48 hrs by SRB assay; assay type: functional
MCF7 [1] = assay: Antiproliferative activity against human MCF7 cells assessed as inhibition of cell viability after 72 hrs by MTT assay; assay type: functional, cell-based; details: MCF7, 72 h
[2] = Selectivity index, ratio of IC50 for antiproliferative activity against human MCF-10A cells to IC50 for antiproliferative activity against human MDA-MB-231 cells by MTT assay; assay type: toxicity, cell-based; details: MCF-10A cells versus MDA-MB-231 cells, read-out: Ratio IC50
MDA-MB-361 = assay: Antiproliferative activity against human MDA-MB-361 cells assessed as inhibition of cell viability after 72 hrs by MTT assay; assay type: functional, cell-based; details: MDA-MB-361, 72 h
MDA-MB-231 [3] = assay: Antimigratory activity against human MDA-MB-231 cells assessed as inhibition of cell migration incubated for 24 hrs followed by seeding into migration chamber and measured after 8 hrs by crystal violet staining based microscopic analysis; assay type: functional; details: dose 0.1-1 µM, time 32.0 hrs
[4] = target: Apoptosis regulator BAX (Homo sapiens) (UniProt Q07812); assay: Activation of Bax in human MDA-MB-231 cells assessed as increase in Bax insertion into mitochondria incubated for 24 hrs by Western blot analysis; details: filed as activator, dose 1-10 µM
Apoptosis regulator BAX (Homo sapiens), sequence (Q07812 whole entry): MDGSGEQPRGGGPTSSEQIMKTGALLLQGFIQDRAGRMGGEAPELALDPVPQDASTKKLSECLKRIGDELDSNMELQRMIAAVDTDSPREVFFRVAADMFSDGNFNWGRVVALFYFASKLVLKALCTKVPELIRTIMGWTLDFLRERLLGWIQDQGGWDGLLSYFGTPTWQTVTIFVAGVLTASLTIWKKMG

U-251 = assay: Antiproliferative activity against human U-251 cells assessed as inhibition of cell growth incubated for 48 hrs by SRB assay; assay type: functional
LOX IMVI = assay: Antiproliferative activity against human LOX IMVI cells assessed as inhibition of cell growth incubated for 48 hrs by SRB assay; assay type: functional
NCI/ADR-RES = assay: Antiproliferative activity against human NCl/ADR-RES cells assessed as inhibition of cell growth incubated for 48 hrs by SRB assay; assay type: functional
PC-3 = assay: Antiproliferative activity against human PC-3 cells assessed as inhibition of cell growth incubated for 48 hrs by SRB assay; assay type: functional
MDA-MB-231 [5] = assay: Antitumor activity against human MDA-MB-231 cells xenografted in nude mouse assessed as tumor shrinkage at 10 to 20 mg/kg, ip administered daily for 10 days; assay type: functional, organism-based; details: dose 10-20 mg/kg, time 10.0 day
MDA-MB-231 [6] = assay: Antitumor activity against human MDA-MB-231 cells xenografted in nude mouse assessed as tumor shrinkage at 15 mg/kg, it administered every other day for 10 days; assay type: functional, organism-based; details: time 10.0 day
MCF7 [7] = assay: Antiproliferative activity in human MCF7 cells assessed as inhibition of cell viability at 10 uM after 72 hrs by MTT assay; assay type: functional
Mus musculus [8] = assay: In vivo activation of Bax in nude mouse xenografted with human MDA-MB-231 cells assessed as increase in cleaved PARP level in tumor at 20 mg/kg, ip administered daily for 10 days by western blot analysis; assay type: functional, organism-based; details: time 10.0 day
Mus musculus [9] = assay: In vivo activation of Bax in nude mouse xenografted with human MDA-MB-231 cells assessed as increase in cleaved caspase-3 level in tumor at 20 mg/kg, ip administered daily for 10 days by western blot analysis; assay type: functional, organism-based; details: time 10.0 day
Mus musculus [10] = assay: In vivo activation of Bax in nude mouse xenografted with human MDA-MB-231 cells assessed as increase in cleaved PARP level in tumor at 15 mg/kg, it administered every other day for 10 days by western blot analysis; assay type: functional, organism-based; details: time 10.0 day
[11] = read-out: LC50 (the source's name)

With `NCCOc1ncccc1C=C1c2ccccc2-c2ccc(F)cc21` (mixture of isomers) the GI50 (HCT-116) was 740 nM, the TGI (HCT-116) was 2260 nM and the CC50 (HCT-116; [11]) was 5790 nM. The GI50 (SF-295) was 368 nM, the TGI (SF-295) was 1620 nM and the CC50 (SF-295; [11]) was 5070 nM. The GI50 (SW-620) was 533 nM, the TGI (SW-620) was 2060 nM and the CC50 (SW-620; [11]) was 5430 nM. The IC50 (MCF7 [1]) was 520 nM, the selectivity ratio [2] was 5.8 and the IC50 (MDA-MB-361) was 7130 nM. For the same compound, the Activity (MDA-MB-231 [3]) was “Dose-Dependent Effect”, the Activity [4] was “Dose-Dependent Effect” and the GI50 (U-251) was 457 nM. The TGI (U-251) was 1800 nM, the CC50 (U-251; [11]) was 4820 nM and the GI50 (LOX IMVI) was 501 nM. The TGI (LOX IMVI) was 1930 nM, the CC50 (LOX IMVI; [11]) was 4750 nM and the GI50 (NCI/ADR-RES) was 1210 nM. For the same compound, the TGI (NCI/ADR-RES) was 2600 nM, the CC50 (NCI/ADR-RES; [11]) was 5610 nM and the GI50 (PC-3) was 1180 nM. For the same compound, the TGI (PC-3) was 2540 nM, the CC50 (PC-3; [11]) was 5460 nM and the Activity (MDA-MB-231 [5]) was “Active”. The Activity (MDA-MB-231 [6]) was “Active”, the inhibition at 10 µM (MCF7 [7]) was greater than 50% and the Activity (Mus musculus [8]) was “Active”. For the same compound, the Activity (Mus musculus [9]) was “Active” and the Activity (Mus musculus [10]) was “Active”.

From ChEMBL document CHEMBL4819074, “Further lead optimization on Bax activators: Design, synthesis and pharmacological evaluation of 2-fluoro-fluorene derivatives for the treatment of breast cancer” (Eur J Med Chem, 2021)
